Values joined by “and” are separate entries in the source; they are usually repeats but may differ in a detail not shown here. Equal values may be shown once.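 A five-concentration, 48-hour dose response in 96-well plates underlies each endpoint, interpolated linearly between surrounding concentrations. Abbreviation: GI50, concentration required for 50% inhibition of growth. Definition used: TGI = concentration required for complete inhibition of growth.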
Assays:
Assay in all cases: growth of human tumour cells (NCI), 48 h
SN12C renal = tested on: SN12C renal
NCI/ADR-RES ovarian = tested on: NCI/ADR-RES ovarian
SR leukemia = tested on: SR leukemia
NCI-H23 lung = tested on: NCI-H23 lung
DU-145 prostate = tested on: DU-145 prostate
T-47D breast = tested on: T-47D breast
OVCAR-4 ovarian = tested on: OVCAR-4 ovarian
U251 CNS = tested on: U251 CNS
MCF7 breast = tested on: MCF7 breast
MOLT-4 leukemia = tested on: MOLT-4 leukemia

Structure (SMILES)	GI50 (SN12C renal)	TGI (SN12C renal)	GI50 (NCI/ADR-RES ovarian)	TGI (NCI/ADR-RES ovarian)	GI50 (SR leukemia)	TGI (SR leukemia)	GI50 (NCI-H23 lung)	TGI (NCI-H23 lung)	GI50 (DU-145 prostate)	TGI (DU-145 prostate)	GI50 (T-47D breast)	TGI (T-47D breast)	GI50 (OVCAR-4 ovarian)	TGI (OVCAR-4 ovarian)	GI50 (U251 CNS)	TGI (U251 CNS)	GI50 (MCF7 breast)	TGI (MCF7 breast)	GI50 (MOLT-4 leukemia)	TGI (MOLT-4 leukemia)
COC12C=C/C(=C(/C(=O)OCCSc3ccnn3C)C(=O)CCCCCCCCC3(OC)C=C/C(=C(/C(=O)OCCSc4ccnn4C)C(=O)CCCCCCCC1)O3)O2	1.05 µM	5.64 µM	1.64 µM	> 32.5 µM	0.886 µM	> 32.5 µM	0.854 µM	2.37 µM	1.31 µM	> 32.5 µM	1.26 µM	> 32.5 µM	0.837 µM	2.5 µM	0.979 µM	3.32 µM	0.927 µM	15.2 µM		
c1ccc2cc(Cn3cc[n+](Cc4ccc5ccccc5c4)c3)ccc2c1	0.846 µM	7.03 µM	> 100 µM	> 100 µM	1.03 µM	3.42 µM	0.901 µM	10.1 µM	2.83 µM	14.7 µM	0.385 µM	5.24 µM	0.339 µM	2.97 µM	1.5 µM	11 µM	1.87 µM	10.5 µM	1.24 µM	8.38 µM
CC(=Nc1ccccc1)C1=C(O)C(Cc2cccc(F)c2)NC1=O (stereo unspecified)	0.129 µM	> 100 µM	0.0348 µM	0.186 µM	0.0239 µM	> 72.8 µM	0.101 µM	> 100 µM	0.086 µM	10.2 µM	0.0425 µM	> 100 µM	0.345 µM	> 100 µM	0.0702 µM	> 100 µM	0.0354 µM	> 100 µM	0.158 µM	> 100 µM
C=C1C(=O)O[C@H]2[C@H]1CC/C(COC(=O)c1cn(C)c3ccccc13)=C\CC[C@@]1(C)O[C@@H]21	0.719 µM	2.3 µM	2.15 µM	14.2 µM	0.342 µM	1.17 µM	1.93 µM	4.92 µM	1.01 µM	2.2 µM	1.19 µM	3.42 µM	1.14 µM	3.04 µM	1.42 µM	2.77 µM	0.4 µM	1.98 µM	0.578 µM	3.54 µM
O=C1OCC(c2ccc(O)cc2)=C1c1cc(O)c(O)c(O)c1	54 µM	> 100 µM	25.2 µM	62.8 µM	20.7 µM	> 100 µM	> 100 µM	> 100 µM	> 100 µM	> 100 µM	> 100 µM	> 100 µM	> 100 µM	> 100 µM	31.4 µM	> 100 µM	77.5 µM	> 100 µM	> 100 µM	> 100 µM
CC(CN1CC(=O)NC(=O)C1)N1CC(=O)NC(=O)C1 (stereo unspecified)		> 750 µM		> 698 µM		> 750 µM		> 750 µM		> 750 µM		> 750 µM		> 750 µM		> 750 µM		> 750 µM		> 750 µM
O=C1CSC(c2ccc(-c3nc4ccccc4[nH]3)cc2)=N1	> 50 µM	> 50 µM	> 50 µM	> 50 µM	5.7 µM	> 50 µM	47.4 µM	> 50 µM	31.4 µM	> 50 µM	> 50 µM	> 50 µM			17.4 µM	> 50 µM	8.89 µM	> 50 µM		
Cc1cc2c(cc1C)[n+](=O)c(C(=O)/C=C/c1ccc3c(c1)OCO3)c(C)n2[O-]		> 100 µM		> 100 µM		> 100 µM		> 89.1 µM		> 100 µM		> 100 µM		> 100 µM		62.7 µM		> 100 µM		> 100 µM
O=C1Nc2ccccc2/C1=C\c1cccc(/C=C2/C(=O)Nc3ccccc32)n1	0.357 µM	1.36 µM	0.689 µM	6.47 µM	0.231 µM	4.88 µM	0.855 µM	2.43 µM	0.881 µM	2.26 µM	1.13 µM	3.4 µM	0.718 µM	1.99 µM	0.16 µM	0.346 µM	0.226 µM	0.851 µM	0.509 µM	
CC(=O)NNc1nc(C)c(C(/C=C/c2ccc([N+](=O)[O-])cc2)=N/NC(N)=O)s1		> 100 µM		> 100 µM		> 100 µM		> 100 µM		> 100 µM		> 100 µM		> 100 µM		> 100 µM		> 100 µM		> 100 µM
CCOc1cc(C(=O)O)c2c(ccc3ccc(OC)c(OC)c32)c1OC		> 100 µM		> 100 µM		> 100 µM		> 100 µM		> 100 µM		> 100 µM		> 100 µM		> 100 µM		> 100 µM		> 100 µM
COc1ccc(C(C#N)=C2C=CC(=NO)C=C2)cc1	12.5 µM	27.6 µM	3.38 µM	13.3 µM	3.53 µM	> 100 µM	12.8 µM	26.3 µM	1.92 µM	4.42 µM	1.76 µM	5.36 µM	5.85 µM	19.6 µM	6.46 µM	19.4 µM	2.88 µM	13.8 µM	4.58 µM	> 100 µM
Cc1cc(C(=O)Nc2cc(Oc3ccc4nc(NC(=O)C5CC5)cn4n3)ccc2C)n(C)n1	> 10 µM	> 10 µM	> 10 µM	> 10 µM	2.26 µM	> 10 µM	> 10 µM	> 10 µM	> 10 µM	> 10 µM	> 10 µM	> 10 µM	> 10 µM	> 10 µM	> 10 µM	> 10 µM	6.41 µM	> 10 µM	> 10 µM	> 10 µM
CCCCCCCCCCCC[N+](C)(C)Cc1ccccc1	2.11 µM	5.12 µM	41.9 µM	> 100 µM	1.83 µM	5.16 µM	2.5 µM	10.2 µM	3.61 µM	13.6 µM	2.68 µM	15.5 µM	1.82 µM	7.68 µM	1.48 µM	3.51 µM	2.01 µM	7.7 µM	2.18 µM	5.4 µM
CN(C)c1ccc(C(=N)c2ccc(N(C)C)cc2)cc1	6.32 µM and 6.04 µM	> 100 µM	1.68 µM and 1.52 µM	7.42 µM and 5.04 µM	0.736 µM	5.3 µM	4.47 µM and 2.16 µM	34.6 µM and 6.59 µM	4.14 µM and 5.93 µM	> 100 µM	5.51 µM and 3.42 µM	44.8 µM and 29.2 µM	5.86 µM and 3.71 µM	> 100 µM	3.54 µM and 3.11 µM	18.9 µM and 17.7 µM	1.34 µM and 1.29 µM	32.3 µM and 38.3 µM	3.66 µM	26 µM
c1cc(CN2CCCNCCNCCCNCC2)ccc1CN1CCCNCCNCCCNCC1	> 100 µM	> 100 µM	> 100 µM	> 100 µM	> 100 µM	> 100 µM	> 100 µM	> 100 µM	> 100 µM	> 100 µM	> 100 µM	> 100 µM	> 100 µM	> 100 µM	> 100 µM	> 100 µM	> 100 µM	> 100 µM	> 100 µM	> 100 µM
COc1cccc(-n2ncc3c(N/N=C/c4ccc(C)cc4)ncnc32)c1	> 25 µM	> 25 µM	> 25 µM	> 25 µM	> 14.4 µM	> 25 µM	> 25 µM	> 25 µM	> 25 µM	> 25 µM	> 25 µM	> 25 µM	> 25 µM	> 25 µM	> 25 µM	> 25 µM	7.2 µM	> 25 µM	> 25 µM	> 25 µM
Nc1ncnc2c1c(-c1ccc(Oc3ccccc3)cc1)nn2C[C@H]1SSC[C@@H]1O	1.36 µM	13.2 µM	2.73 µM	37.1 µM	0.165 µM	0.627 µM	0.83 µM	21.4 µM	1.7 µM	10.6 µM	0.685 µM	3.63 µM	1.44 µM	19.8 µM	1.45 µM	13.2 µM	0.289 µM	4.37 µM	0.0825 µM	0.361 µM
CC(CN(C)C)S(=O)(=O)c1ccc(-c2cnc(N)c(C(=O)Nc3ccccc3)n2)cc1 (stereo unspecified)	5.09 µM	27 µM	5.2 µM	> 100 µM	1.39 µM	8.53 µM	3.05 µM	24.7 µM	4.56 µM	> 49.8 µM	13.1 µM	59.3 µM	6.95 µM	54.2 µM	4.17 µM	30 µM	1.58 µM	38.8 µM	3.15 µM	14.2 µM
COC1(OC)C2(Cl)C(Cl)=C(Cl)C1(Cl)C1c3ccc(C(C)=O)c4cccc(c34)C12 (stereo unspecified)		> 100 µM		> 100 µM		50.2 µM		> 83 µM		> 100 µM		99.3 µM		> 100 µM		99.9 µM		> 100 µM		> 77.6 µM
CC/C=C\C[C@H](O)C/C=C1/C(=O)C=C[C@@H]1C/C=C\CCCC(=O)OC(C)C	2.42 µM	6.35 µM	3.11 µM	17.2 µM	0.896 µM	5.01 µM	1.73 µM	4.37 µM	3.05 µM	11.9 µM	1.37 µM	7 µM	2.92 µM	14.4 µM	0.48 µM	1.74 µM	0.372 µM	2.22 µM	1.24 µM	6.36 µM
C=C(C)[C@@H]1CC[C@]2(COCCCNCCCN)CC[C@]3(C)[C@H](CC[C@@H]4[C@@]5(C)CC[C@H](OCCCN)C(C)(C)[C@@H]5CC[C@]43C)[C@@H]12	0.867 µM	1.62 µM	0.936 µM	1.87 µM	0.577 µM	1.94 µM	0.934 µM	1.79 µM	0.895 µM	1.62 µM	0.858 µM	1.71 µM	0.934 µM	1.78 µM	0.836 µM	1.54 µM	0.879 µM	1.7 µM	1.05 µM	2.58 µM
O=C1/C(=C/c2ccc(F)c(F)c2)CN(C(=O)C(Cl)Cl)C/C1=C\c1ccc(F)c(F)c1	0.112 µM	0.381 µM	0.0633 µM	0.868 µM	0.0128 µM	> 100 µM	0.139 µM	0.428 µM	0.312 µM	0.925 µM	0.302 µM	2.05 µM	0.233 µM	1.24 µM	0.0331 µM	0.131 µM	0.0424 µM	0.181 µM	0.0491 µM	> 100 µM
COC(NC(N)=O)C(=O)O (stereo unspecified)		> 100 µM		> 100 µM		> 100 µM		> 100 µM		> 100 µM		> 100 µM		> 100 µM		> 100 µM		> 100 µM		> 100 µM
CN(C)C[C@H]1CCn2c(c(C3=C(c4cn(C)c5ccccc45)C(=O)NC3=O)c3ccccc32)C1	4.39 µM	9.66 µM	5.67 µM	14.2 µM	4.26 µM	11.1 µM	6.58 µM	15 µM	5.46 µM	10.8 µM	5.43 µM	11.2 µM	3.97 µM	12.5 µM	3.98 µM	8.2 µM	4.25 µM	9.36 µM	6.38 µM	14 µM
C=C1C(=O)O[C@H]2[C@H]1CC/C(Cn1cc(Cc3c[nH]c4ccccc34)nn1)=C\CC[C@@]1(C)O[C@@H]21	1.98 µM	4.42 µM	6.22 µM	21.9 µM	0.389 µM	8.32 µM	2.02 µM	4.56 µM	1.54 µM	2.88 µM	1.87 µM	4.7 µM	2.05 µM	5.61 µM	1.89 µM	3.63 µM	1.5 µM	3.34 µM	2.29 µM	6.04 µM
Cc1c(NC(=O)CCl)c(=O)oc2c(C)c3occc(=O)c3cc12				60.8 µM		58 µM				74.5 µM		66.3 µM		25.6 µM		27.5 µM		66.2 µM		17.9 µM

— PubChem BioAssay (NCI)
